Results: patent publication US12655150B2 (Cedilla Therapeutics, Inc., priority 2021, dated 2026)
Structures can show the parent of a compound that is named as a salt.

Tested on: NCI-H226
Test: 72H TEAD Proliferation Assay (Cell Titer Glo 2.0)
Format: cell-based
Details: Homo sapiens, NCI-H226, 72 h, CTG 2.0, cell line not given (NCI-H226 responsive, NCI-H28 non-responsive)
Description: 72H TEAD Proliferation Assay.
The effect of TEAD inhibition on cell proliferation was assayed using Cell Titer Glo (CTG) 2.0 to measure response in mesothelioma cell lines NCI-H226 (ATCC, #CRL-5826) and NCI-H28 (ATCC, #CRL-5820).
The 72H TEAD Proliferation assay utilizes Cell Titer-Glo 2.0 (Promega, #G9243) to measure the proliferation of cells in the presence or absence of compound. Cell Titer-Glo 2.0 determines the amount of viable cells by quantifying ATP (an indication of metabolically active cells). It utilizes the conversion of Luciferin to Oxyluciferin and a luminescent signal with the use of ATP to report the quantity of viable cells in culture. Within cells that are continually growing, ATP is being synthesized to meet their metabolic demands, meanwhile the opposite is true for cells that are dying or slowing down their proliferation and either no longer using ATP or are using less, respectively. The NF2-deficient NCI-H226 has been genetically validated as a cell line that is sensitive to TEAD inhibition. The NF2-wild type NCI-H28 has been genetically validated as a cell line that is not sensitive to TEAD inhibition and grows independently of TEAD activity.
Compounds were screened against the responsive NCI-H226 cell line to assess the compounds' ability to inhibit TEAD and cell growth. Compounds were also screened against the non-responsive NCI-H28 cell line to ascertain whether the inhibition of cell growth was due to inhibition of the target TEAD or whether the inhibition was due to off-target cytotoxicity.
• 1) Assay ready plates (ARPs) were prepared by Echo acoustic liquid handler. […] After CTG addition, plates were placed on shaker at 800 RPM for 15 minutes at room temperature and kept in the dark. Luminescence was measured using EnVision multilabel plate reader with ultra-sensitive detection module. • 9) Data Analysis: First background luminescence (no CTG wells) was subtracted from luminescence reading of all wells, then TO luminescence was subtracted from T72 luminescence. To compare anti-proliferative effect of compounds, GI50 was obtained by fitting dose response curves with nonlinear regression curve fit.

GI50 [µM]	Compound
≤ 1	COc1cc(-c2ccc(C(F)(F)F)cc2)nc2cc(C(=O)N[C@@H](CO)c3ccccc3)ccc12 [I-345, (R)—N-(2-hydroxy-1-phenylethyl)-4-methoxy-2-(4-(trifluoromethyl)phenyl)quinoline-7-carboxamide]
≤ 1	COc1cc2c(-c3ccc(C(C)(C)C)cc3)nc3cc(C(=O)O)ccc3n2c1 [I-180, 4-(4-(tert-butyl)phenyl)-2-methoxypyrrolo[1,2-a]quinoxaline-7-carboxylic acid]
1 to 5	N#CNCc1cn2ccnc2c(-c2ccc(C(F)(F)F)cc2)n1 [I-238, N-((8-(4-(Trifluoromethyl)phenyl)imidazo[1,2-a]pyrazin-6-yl)methyl)cyanamide]
1 to 5	O=C(O)c1ccc2c(c1)nc(-c1ccc(C(F)(F)F)nc1)c1cccn12 [I-51, 4-(6-(Trifluoromethyl)pyridin-3-yl)pyrrolo[1,2-a]quinoxaline-7-carboxylic acid]
≤ 1	C=CC(=O)NCc1cn2cccc2c(-c2ccc(C(F)(F)F)cn2)n1 [I-314, N-((1-(5-(Trifluoromethyl)pyridin-2-yl)pyrrolo[1,2-a]pyrazin-3-yl)methyl)acrylamide]
≤ 1	COC[C@H](C)NC(=O)c1ccc2c(C)cc(-c3ccc(C(F)(F)F)cc3)nc2c1 [I-263, (S)—N-(1-methoxypropan-2-yl)-4-methyl-2-(4-(trifluoromethyl)phenyl)quinoline-7-carboxamide]
> 10	CC(C)(C)c1ccc(-c2nc3cc(C#N)ccc3n3ccnc23)cc1 [I-75, 4-(4-(tert-Butyl)phenyl)imidazo[1,2-a]quinoxaline-7-carbonitrile]
> 10	CC(C)(C)c1ccc(-c2nc3cc(CO)ccc3n3ccnc23)cc1 [I-77, (4-(4-(tert-Butyl)phenyl)imidazo[1,2-a]quinoxalin-7-yl)methanol]
> 10	CC(C)(C)c1ccc(-c2nc(/C=C/c3nnn[nH]3)cn3ccnc23)cc1 [I-155, (E)-6-(2-(1H-tetrazol-5-yl)vinyl)-8-(4-(tert-butyl)phenyl)imidazo[1,2-a]pyrazine]
> 10	CC(C)(C)C#Cc1nc2cc(C(=O)O)ccc2n2cccc12 [I-118, 4-(3,3-Dimethylbut-1-yn-1-yl)pyrrolo[1,2-a]quinoxaline-7-carboxylic acid]
> 10	CC(C)(C)c1ccc(-c2nc(C(=O)O)cn3cnnc23)cc1 [I-93, 8-(4-(tert-Butyl)phenyl)-[1,2,4]triazolo[4,3-a]pyrazine-6-carboxylic acid]
≤ 1	C=CC(=O)NCc1cn2ncnc2c(-c2ccc(C(F)(F)F)cc2)n1 [I-236, N-((8-(4-(Trifluoromethyl)phenyl)-[1,2,4]triazolo[1,5-a]pyrazin-6-yl)methyl)acrylamide]
≤ 1	C=CC(=O)Nc1cn2cccc2c(-c2ccc(C3(C(F)(F)F)CC3)cc2)n1 [I-102, N-(1-(4-(1-(trifluoromethyl)cyclopropyl)phenyl)pyrrolo[1,2-a]pyrazin-3-yl)acrylamide]
> 10	CC(C)(C)c1ccc(-c2nc(C(=O)O)cn3cncc23)cc1 [I-94, 8-(4-(tert-Butyl)phenyl)imidazo[1,5-a]pyrazine-6-carboxylic acid]
1 to 5	CN(C)c1cc(-c2ccc(C(F)(F)F)cc2)nc2cc(C(=O)O)ccc12 [I-392, 4-(dimethylamino)-2-(4-(trifluoromethyl)phenyl)quinoline-7-carboxylic acid]
> 10	CC(F)(F)C1CCN(c2nc3cc(C(=O)O)ccc3n3cccc23)CC1 [I-14, 4-(4-(1,1-Difluoroethyl)piperidin-1-yl)pyrrolo[1,2-a]quinoxaline-7-carboxylic acid]
5 to 10	C=CC(=O)Nc1c(C)nc2c(-c3ccc(C(C)(C)C)cc3)nccn12 [I-257, N-(8-(4-(tert-butyl)phenyl)-2-methylimidazo[1,2-a]pyrazin-3-yl)acrylamide]
1 to 5	CC(C)(C)c1ccc(-c2nc3cc(C(=O)O)ncc3n3cccc23)cc1 [I-282, 6-(4-(tert-butyl)phenyl)pyrido[4,3-e]pyrrolo[1,2-a]pyrazine-3-carboxylic acid]
≤ 1	C=CC(=O)NCc1nc(-c2ccc(OC(F)(F)F)cc2)c2ccc(F)cc2n1 [I-447, N-((7-fluoro-4-(4-(trifluoromethoxy)phenyl)quinazolin-2-yl)methyl)acrylamide]
> 10	CC(C)(C)c1ccc(-c2cnc3ccc(C#N)cc3n2)cc1 [I-159, 3-(4-(tert-butyl)phenyl)quinoxaline-6-carbonitrile]

GI50 [µM]	Compound
1 to 5	O=C(O)c1ccc2c(c1)nc(N1CCC3(CC1)CC3)c1ncnn12 [I-285, 4-(6-azaspiro[2.5]octan-6-yl)-[1,2,4]triazolo[1,5-a]quinoxaline-7-carboxylic acid]
≤ 1	C=CC(=O)NCc1cn2ccnc2c(Nc2cccc(C(F)(F)F)c2)n1 [I-169, N-((8-((3-(trifluoromethyl)phenyl)amino)imidazo[1,2-a]pyrazin-6-yl)methyl) acrylamide]
1 to 5	CC(C)C1CCN(c2nc3cc(C(=O)O)ccc3n3cccc23)CC1 [I-12, 4-(4-Isopropylpiperidin-1-yl)pyrrolo[1,2-a]quinoxaline-7-carboxylic acid]
≤ 1	CC(C)(C)c1ccc(-c2nc3cc(C(N)=O)ccc3n3cccc23)cc1 [I-166, 4-(4-(tert-butyl)phenyl)pyrrolo[1,2-a]quinoxaline-7-carboxamide]
1 to 5	Cc1cnc(-c2nc3cc(C(=O)O)ccc3n3cccc23)nc1 [I-129, 4-(5-Methylpyrimidin-2-yl)pyrrolo[1,2-a]quinoxaline-7-carboxylic acid]
≤ 1	CC(C)(C)c1ccc(-c2nc3cc(C(=O)O)cnc3n3cccc23)cc1 [I-139, 6-(4-(tert-Butyl)phenyl)pyrido[3,2-e]pyrrolo[1,2-a]pyrazine-3-carboxylic acid]
≤ 1	C=CC(=O)NCc1cc2ccccc2c(-c2ccc(C(F)(F)F)cc2F)n1 [I-301, N-((1-(2-Fluoro-4-(trifluoromethyl)phenyl)isoquinolin-3-yl)methyl)acrylamide]
> 10	COC(=O)/C=C/c1cn2ccnc2c(-c2ccc(C(C)(C)C)cc2)n1 [I-151, Methyl (E)-3-(8-(4-(tert-butyl)phenyl)imidazo[1,2-a]pyrazin-6-yl)acrylate]
> 10	C=CC(=O)Nc1nc(-c2ccc(C(C)(C)C)cc2)nc2cc(C(=O)O)ccc12 [I-104, 4-Acrylamido-2-(4-(tert-butyl)phenyl)quinazoline-7-carboxylic acid]
1 to 5	O=C(O)c1ccc2c(c1)nc(N1CC3C(C1)C3C(F)(F)F)c1cccn12 (stereo not drawn) [I-128, 4-(6-(Trifluoromethyl)-3-azabicyclo[3.1.0]hexan-3-yl)pyrrolo[1,2-a]quinoxaline-7-carboxylic acid hydrochloride]
≤ 1	C=CC(=O)NCc1cn2nccc2c(-c2ccc(C(F)(F)F)cc2)n1 [I-316, N-((4-(4-(trifluoromethyl)phenyl)pyrazolo[1,5-a]pyrazin-6-yl)methyl)acrylamide]
≤ 1	C=CC(=O)NCc1nc(-c2ccc(C(F)(F)F)cc2F)c2ncccc2n1 [I-306, N-((4-(2-fluoro-4-(trifluoromethyl)phenyl)pyrido[3,2-d]pyrimidin-2-yl)methyl)acrylamide]
> 10	CC1(C)CC2(CCN(c3nc4cc(C(=O)O)ccc4n4cccc34)CC2)CO1 [I-34, 4-(3,3-Dimethyl-2-oxa-8-azaspiro [4.5]decan-8-yl) pyrrolo[1,2-a] quinoxaline-7-carboxylic acid]
> 10	O=C(O)c1ccc2c(c1)nc(N1CCC(C(F)(F)F)CC1)c1cccn12 [I-38, 4-(4-(Trifluoromethyl)piperidin-1-yl)pyrrolo[1,2-a]quinoxaline-7-carboxylic acid]
1 to 5	CN(C)CCNC(=O)c1ccc2c(c1)nc(-c1ccc(C(C)(C)C)cc1)c1cccn12 [I-188, 4-(4-(tert-butyl)phenyl)-N-(2-(dimethylamino)ethyl)pyrrolo[1,2-a]quinoxaline-7-carboxamide]
≤ 1	C=CC(=O)N(C)Cc1cn2ccnc2c(-c2ccc(C(F)(F)F)cc2)n1 [I-177, N-Methyl-N-((8-(4-(trifluoromethyl)phenyl)imidazo[1,2-a]pyrazin-6-yl)methyl)acrylamide]
> 10	CC(C)(C)c1ccc(-c2cncc3c(C(=O)O)c[nH]c23)cc1 [I-97, 7-(4-(tert-Butyl)phenyl)-1H-pyrrolo[3,2-c] pyridine-3-carboxylic acid]
1 to 5	COc1cc(-c2ccc(C(F)(F)F)cc2)nc2cc(C(=O)NC(C)(C)CO)ccc12 [I-352, N-(1-hydroxy-2-methylpropan-2-yl)-4-methoxy-2-(4-(trifluoromethyl)phenyl)quinoline-7-carboxamide]
1 to 5	CS(=O)(=O)NCc1cn2cccc2c(-c2ccc(C(F)(F)F)cc2)n1 [I-320, N-((1-(4-(trifluoromethyl)phenyl)pyrrolo[1,2-a]pyrazin-3-yl)methyl)methanesulfonamide]
